According to patent publication US20110039879A1, “METHODS FOR INCREASING WHITE BLOOD CELLS” (FibroGen ,Inc., priority 2007, published 2011):

Assays:
Type in all cases: in vivo, Swiss-Webster mice
[1] = system: total white blood cell (WBC); experiment: Total white blood cells by complete blood count on day 8, dosing day 1, 3, 5; conditions: mice, oral gavage, measured on day 8
[2] = system: total white blood cell (WBC); experiment: as above; conditions: Mus musculus, 192 h, mice, oral gavage, measured on day 8, read-out: Total WBC % Increase Over Control; for change in vivo at 200 mg/kg: 200 mg/kg on day 1, day 3 and day 5
Protocol: (§1) To examine the effect of compounds and methods of the present invention on increasing white blood cells, the following studies were performed. In one series of experiments, male Swiss-Webster mice were administered various compounds of the present invention via oral gavage using a ball-tipped gavage needle. […] Animals were dosed once daily for 3 or 4 days. Six hours after the final dosing, 200 μl blood samples were collected and total white blood cell, neutrophil, and lymphocyte levels were measured by complete blood count (CBC) using a CellDyn cell analyzer (Abbott Laboratories).
(§2) In another series of experiments, male Swiss-Webster mice were administered various compounds (see Table 7 and Table 8) of the present invention via oral gavage using a ball-tipped gavage needle. […] Total WBC, neutrophil, lymphocyte, and monocyte levels were measured in mice as described above on day 8 following administration of compound on day 1, day 3, and day 5.

neutrophils [3] = experiment: Neutrophils by complete blood count on day 8, dosing day 1, 3, 5; conditions: mice, oral gavage, measured on day 8
neutrophils [4] = experiment: as above; conditions: Mus musculus, Neutrophil, 192 h, mice, oral gavage, measured on day 8, read-out: Neutrophils % Increase Over Control; for change in vivo at 200 mg/kg: 200 mg/kg on day 1, day 3 and day 5
Protocol: as §1, §2

lymphocytes = experiment: Lymphocytes by complete blood count on day 8, dosing day 1, 3, 5; conditions: mice, oral gavage, measured on day 8
Protocol: as §1, §2

monocytes = experiment: Monocytes by complete blood count on day 8, dosing day 1, 3, 5; conditions: mice, oral gavage, measured on day 8
[5] = 200 mg/kg on day 1, day 3 and day 5
[6] = Mus musculus, Lymphocyte, 192 h, 200 mg/kg on day 1, day 3 and day 5, read-out: Lymphocytes % Increase Over Control
[7] = Mus musculus, Monocyte, 192 h, 200 mg/kg on day 1, day 3 and day 5, read-out: Monocytes % Increase Over Control
[8] = 100 mg/kg on day 1, day 3 and day 5
[9] = 60 mg/kg on day 1, day 3 and day 5
[10] = 6 mg/kg on day 1, day 3 and day 5

Structure (SMILES)	Total WBC [1, 5]	change in vivo at 200 mg/kg [2]	Neutrophils (neutrophils [3]; [5])	change in vivo at 200 mg/kg (neutrophils [4])	change in vivo at 200 mg/kg (lymphocytes; [6])	Lymphocytes (lymphocytes; [5])	change in vivo at 200 mg/kg (monocytes; [7])	Monocytes (monocytes; [5])	also measured
O=C(O)CNC(=O)c1c(O)c2cccn2n(Cc2ccc(C(F)(F)F)cc2)c1=O [Compound BG, {[4-Hydroxy-2-oxo-1-(4-trifluoromethyl-benzyl)-1,2-dihydro-pyrrolo[1,2-b]pyridazine-3-carbonyl]-amino}-acetic acid]	26.2 10^3 cells/μl	252%	1.0 10^3 cells/μl	22%	296%	24.4 10^3 cells/μl	60%	0.2 10^3 cells/μl	–
N#Cc1nc(C(=O)NCC(=O)O)c(O)c2c(Oc3ccc(F)cc3)cccc12 [Compound G, {[1-Cyano-5-(4-fluoro-phenoxy)-4-hydroxy-isoquinoline-3-carbonyl]-amino}-acetic acid]	14.3 10^3 cells/μl	138%	0.8 10^3 cells/μl	48%	148%	13.2 10^3 cells/μl	317%	0.2 10^3 cells/μl	–
N#Cc1nc(C(=O)NCC(=O)O)c(O)c2c(Cl)cn(Cc3ccc(-c4ccccc4)cc3)c12 [Compound AW, [(1-Biphenyl-4-ylmethyl-3-chloro-7-cyano-4-hydroxy-1H-pyrrolo[2,3-c]pyridine-5-carbonyl)-amino]-acetic acid]	39.1 10^3 cells/μl	616%	4.7 10^3 cells/μl	604%	635%	34.1 10^3 cells/μl	100%	0.2 10^3 cells/μl	–
N#Cc1nc(C(=O)NCC(=O)O)c(O)c2c(Cl)cn(Cc3ccc(F)cc3)c12 [Compound P, {[3-Chloro-7-cyano-1-(4-fluoro-benzyl)-4-hydroxy-1H-pyrrolo[2,3-c]pyridine-5-carbonyl]-amino}-acetic acid]	–	–	–	–	–	–	–	–	Total WBC [1, 8]: 10.2 10^3 cells/μl; change in vivo at 100 mg/kg [2, 8]: 54%; Neutrophils (neutrophils [3]; [8]): 0.8 10^3 cells/μl; change in vivo at 100 mg/kg (neutrophils [4]; [8]): 18%; change in vivo at 100 mg/kg (lymphocytes; Mus musculus, Lymphocyte, 192 h, 100 mg/kg on day 1, day 3 and day 5, read-out: Lymphocytes % Increase Over Control): 60%; Lymphocytes (lymphocytes; [8]): 9.1 10^3 cells/μl; change in vivo at 100 mg/kg (monocytes; Mus musculus, Monocyte, 192 h, 100 mg/kg on day 1, day 3 and day 5, read-out: Monocytes % Increase Over Control): 33%; Monocytes (monocytes; [8]): 0.1 10^3 cells/μl
C[C@@H](c1ccccc1)n1c(Cl)c(Cl)c2c(O)c(C(=O)NCC(=O)O)nc(C#N)c21 [Compound AL, {[(S)-2,3-Dichloro-7-cyano-4-hydroxy-1-(1-phenyl-ethyl)-1H-pyrrolo[2,3-c]pyridine-5-carbonyl]-amino}-acetic acid]	18.2 10^3 cells/μl	207%	2.8 10^3 cells/μl	265%	205%	15.3 10^3 cells/μl	33%	0.1 10^3 cells/μl	–
COc1cccc(Cn2ccc3c(O)c(C(=O)NCC(=O)O)nc(C#N)c32)c1 [Compound M, {[7-Cyano-4-hydroxy-1-(3-methoxy-benzyl)-1H-pyrrolo[2,3-c]pyridine-5-carbonyl]-amino}-acetic acid]	–	–	–	–	–	–	–	–	Total WBC [1, 9]: 9.7 10^3 cells/μl; change in vivo at 60 mg/kg [2, 9]: 149%; Neutrophils (neutrophils [3]; [9]): 0.6 10^3 cells/μl; change in vivo at 60 mg/kg (lymphocytes; Mus musculus, Lymphocyte, 192 h, 60 mg/kg on day 1, day 3 and day 5, read-out: Lymphocytes % Increase Over Control): 126%; Lymphocytes (lymphocytes; [9]): 7.5 10^3 cells/μl; change in vivo at 60 mg/kg (monocytes; Mus musculus, Monocyte, 192 h, 60 mg/kg on day 1, day 3 and day 5, read-out: Monocytes % Increase Over Control): 100%; Monocytes (monocytes; [9]): 0.1 10^3 cells/μl
COc1cccc(Oc2ccc3c(O)c(C(=O)NCC(=O)O)nc(C#N)c3c2)c1 [Compound BE, {[1-Cyano-4-hydroxy-7-(3-methoxy-phenoxy)-isoquinoline-3-carbonyl]-amino}-acetic acid]	–	–	–	–	–	–	–	–	change in vivo at 6 mg/kg ([1]; Mus musculus, 192 h, 6 mg/kg on day 1, day 3 and day 5, read-out: Total WBC % Increase Over Control): 39%; Total WBC [1, 10]: 9.6 10^3 cells/μl; change in vivo at 6 mg/kg (neutrophils [3]; Mus musculus, Neutrophil, 192 h, 6 mg/kg on day 1, day 3 and day 5, read-out: Neutrophils % Increase Over Control): 30%; Neutrophils (neutrophils [3]; [10]): 1.0 10^3 cells/μl; change in vivo at 6 mg/kg (lymphocytes; Mus musculus, Lymphocyte, 192 h, 6 mg/kg on day 1, day 3 and day 5, read-out: Lymphocytes % Increase Over Control): 40%; Lymphocytes (lymphocytes; [10]): 8.1 10^3 cells/μl; change in vivo at 6 mg/kg (monocytes; Mus musculus, Monocyte, 192 h, 6 mg/kg on day 1, day 3 and day 5, read-out: Monocytes % Increase Over Control): 71%; Monocytes (monocytes; [10]): 0.3 10^3 cells/μl
